Measurements published in patent US8088804B2, “N-hydroxyamide derivatives possessing antibacterial activity” (Pfizer Inc., priority 2005, dated 2012).
Converted amounts (≈) assume the structure as drawn.

What was measured:
[1] = system: P. aerug. Hypersuc; assay: Susceptibility testing (MIC, CLSI microdilution); type: cell-based, Pseudomonas aeruginosa; details: 20 h at 35° C., Δ efflux, hypersusceptible strain, unit assumed
Experimental: (§1) Compounds were tested following the microdilution method of CLSI (Clinical and Laboratory Standards Institute. Methods for dilution antimicrobial susceptibility tests for bacteria that grow aerobically; Approved standard—sixth edition. CLSI document M7-A5, CLSI, Wayne, Pa. 2003). Assays were performed in sterile plastic 96-well microtiter trays with round bottom wells (Greiner).
(§2) Stock solutions of test compounds and control antibiotics were prepared at 10 mg/ml in DMSO. Serial 2-fold dilutions of each drug were performed in a microtiter plate across each row using DMSO as solvent at 100-fold the desired final concentration. Wells in columns #1-11 contain drug and column #12 was kept as a growth control for the organism with no drug. Each well in the mother plate was diluted with sterile deionized water and DMSO, mixed, and volumes of 10 μl distributed to each well in the resulting assay plates.
(§3) Stock cultures were prepared using the Microbank™ method (Pro-Lab Diagnostics) and stored at −80° C. To propagate each strain, one bead was removed from the frozen vial and aseptically streaked onto Trypticase Soy Agar (Difco) which were incubated at 35° C. Standardized inocula were prepared using the direct colony suspension method according to CLSI guidelines (Clinical and Laboratory Standards Institute. Methods for dilution antimicrobial susceptibility tests for bacteria that grow aerobically; Approved standard—sixth edition. CLSI document M7-A5, CLSI, Wayne, Pa., 2003). Isolated colonies were selected from an 18-24 hr agar plate and resuspended in 0.9% sterile saline to match a 0.5 McFarland turbidity standard using a calorimeter (Vitek) at 80% of transmitance. The suspension was used within 15 minutes of preparation.
(§4) Mueller-Hinton Broth (MHB) (Difco) was prepared at a 1.1× concentration and supplemented with Ca++ and Mg++ as recommended by CLSI. For each organism, the standardized suspension was diluted 1:180 into appropriate growth medium in a sterile reservoir. After mixing, wells in the drug-containing assay plates were inoculated with a volume of 90 μl. Thus, for each minimum inhibitory concentration (MIC) determination, each well contains a final volume of 100 μl with an inoculum size of approximately 5×10^5 colony forming units (cfu)/ml and no more than 1% DMSO.
(§5) The completed microtiter plates were incubated 20 h at 35° C. in ambient air. Optical density of each well was determined at 600 nm using a VersaMax Microplate reader (Molecular Devices, Sunnyvale, Calif.). The MIC was defined as the lowest drug concentration causing complete suppression of visible bacterial growth.

[2] = system: P. aerug. (2); assay: Susceptibility testing (MIC, CLSI microdilution); type: cell-based, Pseudomonas aeruginosa; details: 20 h at 35° C., in µg/mL (unit assumed)
Experimental: as §1, §2, §3, §4, §5

[3] = system: K. pneu.; assay: Susceptibility testing (MIC, CLSI microdilution); type: cell-based, Klebsiella pneumoniae; details: 20 h at 35° C., unit assumed
Experimental: as §1, §2, §3, §4, §5

[4] = molecular target: P. ae LpxC enzyme (Pseudomonas aeruginosa, UniProt P47205); assay: Enzyme inhibition testing (fluorescamine assay); type: biochemical; details: read-out: ENZYME (percent inhibition); for inhibition at 0.1 µg/mL: @0.1 μg/ml; for inhibition at 10 µg/mL: @10 μg/ml; for inhibition at 0.5 µg/mL: @0.5 μg/ml
Chain of P. ae LpxC enzyme (P47205 whole entry): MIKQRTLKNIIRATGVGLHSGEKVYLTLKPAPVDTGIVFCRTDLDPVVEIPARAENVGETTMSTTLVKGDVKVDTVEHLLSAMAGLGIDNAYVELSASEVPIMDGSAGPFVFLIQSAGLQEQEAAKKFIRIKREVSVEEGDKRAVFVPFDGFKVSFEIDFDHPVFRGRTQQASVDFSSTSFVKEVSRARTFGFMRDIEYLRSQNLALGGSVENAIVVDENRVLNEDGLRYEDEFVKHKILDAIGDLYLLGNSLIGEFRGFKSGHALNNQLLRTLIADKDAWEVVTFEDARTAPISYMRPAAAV
Experimental: Compounds were tested based on a published method (Wang W., 2001, Anal Biochem, 290, 338-46) with modifications. Enzyme assays were performed in the assay buffer (50 mM HEPES, pH8, 0.005% Brij, 50 μM ZnSO4, 1 mg/ml BSA) in 96-well V-bottom microtiter plates.
Stock solutions of test compounds and control antibiotics are prepared at 10 mg/ml in DMSO and are diluted in the assay buffer to 6-fold the final testing concentration. 5 μl compound dilution is distributed to the well of the assay plate. EDTA is used as positive control and the final concentration in assay is 12.5 mM.
P. ae LpxC enzyme dilution in the assay buffer is added to the compound in plate and pre-incubated with the compound at room temperature for 10 min. LpxC substrate is added to initiate the enzyme reaction and the final enzyme and substrate concentrations are 1.2 μM and 0.4 mM, respectively. The reaction continues at RT for 4 hrs before diluted with 45 μl of Borate buffer (0.4 M, pH9), followed by addition of 40 μl derivatization reagent (fluorescamine 2 mg/ml DMF). This mixture is incubated at RT for 10 min followed by addition of 150 μl DMF/H2O (1:1). The resulting solution is loaded onto Millipore filter unit (Microcon 10 k MWCO) and spun at 13 k rpm on bench top centrifuge for 15 min. 100 μl of this filtrate is transferred to a low fluorescence clear-bottom 96-well plate (Corning) and the fluorescence is detected at ex360 nm and em465 nm on a Tecan fluorescence plate reader. The percent inhibition is calculated based on EDTA produces 100% inhibition and negative control produces 100% activity.

[5] = system: E. coli (2); assay: Susceptibility testing (MIC, CLSI microdilution); type: cell-based, Escherichia coli; details: 20 h at 35° C., in µg/mL (unit assumed)
Experimental: as §1, §2, §3, §4, §5

[6] = system: E. coli tolC; assay: Susceptibility testing (MIC, CLSI microdilution); type: cell-based, Escherichia coli; details: 20 h at 35° C., unit assumed
Experimental: as §1, §2, §3, §4, §5

[7] = system: H. influen.; assay: Susceptibility testing (MIC, CLSI microdilution); type: cell-based, Haemophilus influenzae; details: 20 h at 35° C., unit assumed
Experimental: as §1, §2, §3, §4, §5

Compound	MIC P. aerug. Hypersuc [1]	MIC P. aerug. (2) [2]	MIC K. pneu. [3]	inhibition at 0.1 µg/mL [4]	MIC E. coli (2) [5]	MIC E. coli tolC [6]	MIC H. influen. [7]	inhibition at 10 µg/mL [4]	inhibition at 0.5 µg/mL [4]
CCCc1ccc(-c2ccc(C(=O)NC(CSC)C(=O)NO)cc2)cc1 (stereo in doubt) [Compound 28, (S)-N-(1-(Hydroxyamino)-3-(methylthio)-1-oxopropan-2-yl)-4′-propylbiphenyl-4-carboxamide]	> 64 µg/mL	>64	> 64 µg/mL	13%	>64	32 µg/mL (≈ 85.9 µM)	> 64 µg/mL		
CCCc1ccc(-c2ccc(C(=O)N3CC[C@@H](OC)[C@H]3C(=O)NO)cc2)cc1 [Compound 8]	> 64 µg/mL	>64	> 64 µg/mL		>64	32 µg/mL (≈ 83.7 µM)	64 µg/mL (≈ 167 µM)	21%	
O=C(NO)[C@H]1N(C(=O)c2ccc(Oc3ccccc3)cc2)CCS1(=O)=O [Compound 35, (S)-N-Hydroxy-3-(4-phenoxybenzoyl)thiazolidinesulfone-2-carboxamide]	> 64 µg/mL	>64	> 64 µg/mL	21%	>64	0.125 µg/mL (≈ 0.332 µM)	> 64 µg/mL		
CCCc1ccc(-c2ccc(C(=O)N3C[C@H](O)[C@H](O)[C@H]3C(=O)NO)cc2)cc1 [Compound 10]	64 µg/mL (≈ 166 µM)	>64	> 64 µg/mL		>64	64 µg/mL (≈ 166 µM)	> 64 µg/mL		60%
CCCc1ccc(-c2ccc(C(=O)N3CC[S+]([O-])[C@H]3C(=O)NO)cc2)cc1 (stereo partly drawn) [Compound 14, (S)-N-Hydroxy-3-(4′-propylbiphenylcarbonyl)thiazolidine-sulfoxide-2-carboxamide]	8 µg/mL (≈ 20.7 µM)	32	64 µg/mL (≈ 166 µM)		>64	16 µg/mL (≈ 41.4 µM)	> 64 µg/mL		99%
CCCc1ccc(-c2ccc(C(=O)N[C@@H](CCSC)C(=O)NO)cc2)cc1 [Compound 26, (S)-N-(1-(Hydroxyamino)-4-(methylthio)-1-oxobutan-2-yl)-4′-propylbiphenyl-4-carboxamide]	> 64 µg/mL	>64	> 64 µg/mL		>64	> 64 µg/mL	> 64 µg/mL		72%
CCOc1ccc(-c2ccc(C(=O)N3CCS(=O)(=O)[C@H]3C(=O)NO)cc2)cc1 [Compound 33, (S)-3-(4′-Ethoxybiphenylcarbonyl)-N-hydroxythiazolidinesulfone-2-carboxamide]	2 µg/mL (≈ 4.95 µM)	4-16	32 µg/mL (≈ 79.1 µM)	12%	>64	≤ 0.06 µg/mL	16 µg/mL (≈ 39.6 µM)		
CCCc1ccc(-c2ccc(C(=O)NC(CS(C)(=O)=O)C(=O)NO)cc2)cc1 (stereo in doubt) [Compound 29, (S)-N-(1-(Hydroxyamino)-3-(methylsulfone)-1-oxopropan-2-yl)-4′-propylbiphenyl-4-carboxamide]	32 µg/mL (≈ 79.1 µM)	>64	4 µg/mL (≈ 9.89 µM)	59%	>64	≤ 0.06 µg/mL	> 64 µg/mL		
CCCc1ccc(-c2ccc(C(=O)N[C@@H](Cn3cccn3)C(=O)NO)cc2)cc1 [Compound 31]	64 µg/mL (≈ 163 µM)	>64	> 64 µg/mL		>64	1 µg/mL (≈ 2.55 µM)	> 64 µg/mL		100%
CCCc1ccc(-c2ccc(C(=O)N3C[C@@H](N)[C@H](O)[C@H]3C(=O)NO)cc2)cc1 [Compound 11, (2S,3S,4R)-4-Amino-N,3-dihydroxy-1-(4′-propylbiphenylcarbonyl)pyrrolidine-2-carboxamide]	16 µg/mL (≈ 41.7 µM)	64	> 64 µg/mL		>64	32 µg/mL (≈ 83.5 µM)	32 µg/mL (≈ 83.5 µM)		84%
CCCc1ccc(-c2ccc(C(=O)N3CCS(=O)(=O)[C@H]3C(=O)NO)cc2)cc1 [Compound 15, (S)-N-Hydroxy-3-(4′-propylbiphenylcarbonyl)thiazolidine-sulfone-2-carboxamide]	2 µg/mL (≈ 4.97 µM)	8	4 µg/mL (≈ 9.94 µM)	41%	16	2 µg/mL (≈ 4.97 µM)	32 µg/mL (≈ 79.5 µM)		
COc1ccc(C(=O)N2CC[C@@H](O)[C@H]2C(=O)NO)cc1SC(F)(F)F [Compound 40, (2S,3R)-3-Hydroxy-N-hydroxy-1-(4-methoxy-3-trifluoromethylsulfanyl-benzoyl)-pyrrolidine-2-carboxamide]	> 64 µg/mL	>64	64 µg/mL (≈ 168 µM)		>64	32 µg/mL (≈ 84.1 µM)	> 64 µg/mL	52%	
CCCc1ccc(-c2ccc(C(=O)N3CC[C@H](NS(C)(=O)=O)[C@H]3C(=O)NO)cc2)cc1 [Compound 3, (2S,3S)-N-Hydroxy-3-(methylsulfonamido)-1-(4′-propylbiphenylcarbonyl)pyrrolidine-2-carboxamide]	> 64 µg/mL	>64	> 64 µg/mL		>64	32 µg/mL (≈ 71.8 µM)	> 64 µg/mL		55%
